Data as given in PMC7662321, “Andrographolide and Its 14-Aryloxy Analogues Inhibit Zika and Dengue Virus Infection” (Molecules, 2020).
Like-named read-outs stand apart in the source and are kept apart here.

What was measured:
[1] = tested on: DENV 2; assay: DENV 2 viral production in HEK293T/17 cells by standard plaque assay; assay type: cell-based, dengue virus; conditions: for Selective Index (SI): DENV, CC50 and EC50 in HEK293T/17 cells; for EC50: Dengue virus, read-out: EC50 against DENV 2 infection; for DENV 2 viral production, concentration dependence: HEK293T/17, MOI 5, 1 to 100 µM
Method: The effects of the compounds on DENV-2 infection were evaluated using HEK293T/17 as host cells at MOI of 5. The cells were infected with DENV 2 for 2 h and then the cells were incubated with the compounds at non-cytotoxic (or morphology altering) concentrations of 10 and 25 μM of ZAD-1 and ZAD-3, or 25 and 50 μM of ZAD-2, or 50 and 75 μM of andrographolide or 0.1% DMSO vehicle control. After 24 h of treatment, cells were harvested for determination of the percentage of infection by flow cytometry, while the culture supernatants were collected to determine the viral production.
Thus, the EC50 values of ZAD-1 and andrographolide were determined against ZIKV and DENV 2. For ZIKV, A549 cells were infected with ZIKV at MOI 5 and after 2 h of infection, the cells were incubated with ZAD-1 or andrographolide at a range of concentrations (1 to 100 µM) for 24 h, after which the supernatants were collected for determination of EC50 values by standard plaque assay. Both ZAD-1 and andrographolide reduced viral production in a dose-dependent manner (Figure 4A). […] For DENV 2, HEK293T/17 cells were infected with DENV 2 at MOI 5 for 2 h and followed by incubation with ZAD-1 or andrographolide at a range of concentrations (1 to 100 µM) for 24 h. […] The EC50 value for andrographolide in DENV infection is consistent with our previous study undertaken in HepG2 and HeLa cells with the same virus.
DENV 2 (strain 16681) and ZIKV (strain SV0010/15) virus stocks were propagated in C6/36 cells previously described, and virus titers were determined by standard plaque assay as described previously using Vero cells for ZIKV and LLC-MK2 cells for DENV.
(§1) HEK293T/17 or A549 cells were cultured in six-well plates under standard conditions until the cells reached 80% confluence. HEK293T/17 cells were infected with DENV 2, while A549 cells were infected with ZIKV Thai strain at MOI 5 for 2 h at 37 °C and 5% CO2 in culture medium without FBS. Mock infection was undertaken in parallel. After the infection period, the medium was removed and replaced with complete medium (including FBS) containing 0.1% DMSO (no treatment control) or the appropriate concentration of each compound and cells were again incubated under standard conditions. At 24 h post-treatment, cells were harvested for determination of effects of compounds on percentage of infection and supernatant was collected for determination of viral productivity. All experiments were undertaken independently in triplicate with duplicate plaque assay.

[2] = tested on: HSPA1A; assay: 2D-PAGE proteomic analysis of treated A549 cells, HSPA1A spot; assay type: cell-based, human; conditions: A549, 25 µM, 24 h
Method: A549 cells were therefore treated with either vehicle (0.025% DMSO), or with 25 μM of andrographolide or ZAD-1, and at 24 h post-treatment, proteins were prepared and subjected to two-dimension polyacrylamide gel electrophoresis (2D-PAGE). The experiment was undertaken independently in triplicate and representative gels are shown Figure 5, with all replicates being shown in Supplementary Figure S12. […] All of these protein spots were cut from the gels and then subjected to in-gel tryptic digestion followed by mass spectrometry. MASCOT (Matrix Science Inc., Boston, MA, USA) search of the resultant masses identified 4 proteins (Table 3), namely heat shock protein 70 kDa 1A (HSPA1A), phosphoglycerate kinase 1 (PGK1), transketolase (TKT) and nuclear transport protein of GTP-binding nuclear protein Ran (Ran).
2D-PAGE and mass spectroscopic identification of differentially expressed spots was undertaken essentially as previously described. […] Image data were analyzed using Image Master™ 2D Platinum software version 7.0 (GenBio, Geneva, Switzerland). Each spot was evaluated on intensity, volume and area. […] After tryptic in-gel digestion, peptide masses were determined by LC-MS/MS using SYNAPT high definition MS (HDMS) (Waters Corp., Milford, MA, USA).

[3] = tested on: ZIKV; assay: Percentage of ZIKV infection of A549 cells by flow cytometry; assay type: cell-based, Zika virus; conditions: A549, MOI 5, 10 and 25 µM, 24 h, vs vehicle
Method: To confirm the effects of andrographolide and the andrographolide analogues on ZIKV infection, A549 cells were infected with ZIKV at MOI of 5 for 2 h, and subsequently treated with the compounds at concentrations of 10 and 25 μM or with vehicle for 24 h. The cells were harvested for determination of the percentage of infection by flow cytometry, while the supernatants were collected for determination of viral titer by standard plaque assay.
as §1
Mock- or viral-infected cells (with or without compound treatment) were harvested at an appropriate time point then incubated with 10% normal goat serum (NGS; Gibco Invitrogen) in PBS-immunofluorescence assay (IFA) buffer on ice for 30 min. The cells were washed with 800 µL of 1% BSA/PBS-IFA and fixed with 200 µL of 4% paraformaldehyde in PBS-IFA at room temperature in the dark for 20 min. After washing with 800 µL of 1% BSA/PBS-IFA, cells were permeabilized with 200 µL of 0.2% Triton X-100 in PBS-IFA for 10 min at room temperature in the dark. Subsequently, the cells were washed with 800 µL of 1% BSA/PBS-IFA followed by overnight incubation with 50 µL of primary antibody (1:150 dilution of pan-specific anti-dengue virus E protein antibody HB114 for DENV and 1:2 dilution of anti-flavivirus antibody HB112 for ZIKV). After washing twice with 800 µL of 1% BSA/PBS-IFA, the cells were incubated with 50 µL of a goat anti-mouse IgG conjugated with fluorescein isothiocyanate (FITC; KPL, Guilford, UK) diluted 1:40 with 1% BSA/PBS-IFA at room temperature in the dark for 1 h. The cells were washed twice with 800 µL of 1% BSA/PBS-IFA and resuspended in 100 µL of PBS-IFA. The fluorescence signal was analyzed by flow cytometry on a BD FACalibur cytometer (Becton Dickinson, BD Biosciences, San Jose, CA, USA) using CellQuest™ software (Version 6). All experiments were undertaken independently in triplicate. All raw flow cytometry data plots are provided in Supplementary Figures S13–S19.

[4] = tested on: DENV 2; set-up: method as in PMID 30396090; conditions: HeLa cells; read-out: EC50 towards DENV 2; cited from earlier work
[5] = set-up: method as in PMID 11081986; conditions: cited from earlier work

Structure (SMILES)	Selective Index (SI) [1]	EC50 ([1]; HEK293T/17 cells, MOI 5, 24 h treatment post-infection, plaque assay) [µM]	DENV 2 viral production, comparison among compounds ([1]; HEK293T/17, MOI 5, 25 µM, 24 h)	DENV 2 viral production, concentration dependence ([1]; 24 h)	Intensity Level, spot 1 HSPA1A [2]	number of ZIKV-infected cells (percentage of infection) [3]	EC50 ([1]; HEK293T/17, 24 h) [µM]	EC50 [4] [µM]	bioavailability [5]
C=C1CC[C@@H]2[C@]3(C)COC(C)(C)O[C@@H]3CC[C@@]2(C)[C@@H]1C/C=C1/C(=O)OC[C@@H]1Oc1c(Cl)cc(Cl)c2ccc(C)nc12 [ZAD-1]	6.6	22.6 ± 1.8	greatest reduction	dose-dependent reductions	1279.25	significantly reduced	–	–	–
C=C1CC[C@@H]2[C@](C)(CO)[C@H](O)CC[C@@]2(C)[C@@H]1C/C=C1/C(=O)OC[C@H]1O [Andrographolide]	8.4	–	–	dose-dependent reductions	2410.2	significantly reduced	35.2 ± 2.5	22.7	relatively poor
